Molecules are shown by their SMILES. Where “and” joins values, the source holds several entries; their conditions need not be identical. Identical values can stand only once. Inconclusive results and toxic doses are left out.

The experiment has as its system P388 leukemia ip, CD2F1 mice, survival T/C. Briefly: NCI In Vivo Anticancer Drug Screen. Data for tumor model P388 Leukemia (intraperitoneal) in CD2F1 (CDF1) mice. The conditions noted are these: endpoint: median survival time, higher = longer survival. A digest of the protocol: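 Mice carrying the transplanted tumor received test compound or vehicle. Survival was recorded in each group, and the value is the treated-group measurement divided by that of the vehicle-treated control group.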

Setting [1] is: dose: 50.0 mg/kg/injection, schedule: Q01DX005 (ip), vehicle: saline with Tween-80.
The mark [2] stands for this setting: dose: 100.0 mg/kg/injection, schedule: Q01DX005 (ip), vehicle: saline with Tween-80.
Setting [3] is: dose: 200.0 mg/kg/injection, schedule: Q01DX005 (ip), vehicle: saline with Tween-80.
Where [4] appears, read: dose: 50.0 mg/kg/injection, schedule: Q01DX009 (ip), vehicle: saline with Tween-80.
[5] abbreviates: dose: 100.0 mg/kg/injection, schedule: Q01DX009 (ip), vehicle: saline with Tween-80.
Where [6] appears, read: dose: 12.5 mg/kg/injection, schedule: Q01DX009 (ip), vehicle: saline with Tween-80.
The mark [7] stands for this setting: dose: 25.0 mg/kg/injection, schedule: Q01DX009 (ip), vehicle: saline with Tween-80.

On to `CC(C)(C)OC(=O)CS(=O)Nc1ccccc1O` (stereo not given), for which the T/C is, setting by setting: (dose: 60.0 mg/kg/injection, schedule: Q01DX005 (ip), vehicle: Klucel (hydroxypropylcellulose) (HPC)) 105 % of control; (dose: 120.0 mg/kg/injection, schedule: Q01DX005 (ip), vehicle: Klucel (hydroxypropylcellulose) (HPC)) 108 % of control; (dose: 240.0 mg/kg/injection, schedule: Q01DX005 (ip), vehicle: Klucel (hydroxypropylcellulose) (HPC)) 97 % of control.

Turning to `CCOC(=O)C(Cc1ccccc1)P(=O)(OCC)OCC` (stereo not given), the T/C runs as follows: (dose: 100.0 mg/kg/injection, schedule: Q01DX001 (ip), vehicle: saline) 95 % of control; (dose: 200.0 mg/kg/injection, schedule: Q01DX001 (ip), vehicle: saline) 100 % of control; (dose: 400.0 mg/kg/injection, schedule: Q01DX001 (ip), vehicle: saline) 91 % of control.

Regarding `C=CCN(CC=C)P(=O)(N1CC1C)N1CC1C` (stereo not given), the T/C was 166 % of control (dose: 1.65 mg/kg/injection, schedule: Q01DX009 (ip), vehicle: water); 157 % of control (dose: 2.5 mg/kg/injection, schedule: Q01DX009 (ip), vehicle: water); 118 % of control (dose: 3.75 mg/kg/injection, schedule: Q01DX009 (ip), vehicle: water); 97 % of control (dose: 5.0 mg/kg/injection, schedule: Q01DX009 (ip), vehicle: saline).

Regarding `C1CCc2nc3c(nc2C1)CCCC3`, the T/C under setting [1] was 101 % of control, the T/C under setting [2] was 101 % of control and the T/C under setting [3] is 92 % of control.

In the case of `CC1[C@@H]2[C@@H](C=C3C4CCC5Cc6nc7c(nc6C[C@@]5(C)C4C[C@H](O)[C@]32CO)CC2CCC3C4=C[C@H]5O[C@@]6(O[C@@](C)(CO)C[C@@H]6O)C(C)[C@@]5(O)[C@]4(C)[C@@H](O)CC3[C@]2(C)C7)O[C@]12CCC(C)(C)O2` (stereo not given in full), the T/C was 107 % of control (dose: 12.5 micrograms/kg/injection, schedule: Q01DX009 (ip), vehicle: saline + alcohol); 116 % of control (dose: 25.0 micrograms/kg/injection, schedule: Q01DX009 (ip), vehicle: saline + alcohol); 107 % of control (dose: 50.0 micrograms/kg/injection, schedule: Q01DX009 (ip), vehicle: saline + alcohol); 100 % of control (dose: 100.0 micrograms/kg/injection, schedule: Q01DX009 (ip), vehicle: saline + alcohol).

Turning to `COc1cccc2c1C(=O)c1c(O)c3c(c(O)c1C2=O)C[C@@](O)(C(C)=O)C[C@@H]3OC1CC(O)C(O)C(C)O1` (stereo not given in full), the T/C (dose: 12.5 mg/kg/injection, schedule: Q04DX003 (ip), vehicle: water) was 123 % of control; the T/C (dose: 100.0 mg/kg/injection, schedule: Q04DX003 (ip), vehicle: water) was 161 % of control; the T/C (dose: 200.0 mg/kg/injection, schedule: Q04DX003 (ip), vehicle: water) is 192 % of control.

As for `C1CCC(C2CCCC[N-]2)[N-]C1.C1CCC(C2CCCC[N-]2)[N-]C1.[Cl][Co][Cl]` (stereo not given), the T/C was 100 % of control (dose: 50.0 mg/kg/injection, schedule: Q01DX009 (ip), vehicle: saline) and 109 % of control (dose: 100.0 mg/kg/injection, schedule: Q01DX009 (ip), vehicle: saline).

With `CCC(CCC(C)C1CCC2C3CC=C4CC(OC(=O)CCC(=O)O)CCC4(C)C3CCC12C)C(C)C` (stereo not given), the T/C by setting is: (dose: 100.0 mg/kg/injection, schedule: Q04DX003 (ip), vehicle: saline with Tween-80) 95 % of control; (dose: 200.0 mg/kg/injection, schedule: Q04DX003 (ip), vehicle: saline with Tween-80) 87 % of control; (dose: 400.0 mg/kg/injection, schedule: Q04DX003 (ip), vehicle: saline with Tween-80) 87 % of control.

Turning to `Cc1ccc(NC(=O)Nc2sc(=S)c3c(c2C#N)CCCC3)c(C)c1`, the T/C was 87 % of control under setting [4]; 94 % of control under setting [5]; 89 % of control (dose: 200.0 mg/kg/injection, schedule: Q01DX009 (ip), vehicle: saline with Tween-80).

`CC1(NC(=O)C23CC4CC(CC(C4)C2)C3)CCC(C(C)(C)NC(=O)C23CC4CC(CC(C4)C2)C3)CC1` (stereo not given): the T/C under setting [1] was 88 % of control, the T/C under setting [2] was 88 % of control and the T/C under setting [3] was 86 % of control.

Consider `CCCCCCC(=O)/C=C/c1ccc(OC(=O)c2ccc(OC)cc2)cc1`, for which the T/C by setting is: (dose: 6.25 mg/kg/injection, schedule: Q01DX009 (ip), vehicle: saline with Tween-80) 100 % of control; under setting [6], 105 % of control; under setting [7], 98 % of control; under setting [4], 91 % of control; under setting [5], 89 % of control.

As to `CCN(CC)CCNc1cccc2c(C)cc(=O)[nH]c12`, the T/C is 103 % of control under setting [1] and 101 % of control under setting [2].

Consider `Cc1cc2nc(C(C)C(=O)c3ccc(Cl)cc3)c(=O)[nH]c2cc1C` (stereo not given), for which the T/C (dose: 1.88 mg/kg/injection, schedule: Q01DX005 (ip), vehicle: saline with Tween-80) is 100 % of control; the T/C (dose: 3.75 mg/kg/injection, schedule: Q01DX005 (ip), vehicle: saline with Tween-80) was 104 % of control; the T/C (dose: 7.5 mg/kg/injection, schedule: Q01DX005 (ip), vehicle: saline with Tween-80) was 86 % of control.

Take `CCOC(=O)c1cnc2c(cnn2CC)c1NN=C(C)C`: the T/C reads like this: (dose: 66.0 mg/kg/injection, schedule: Q04DX003 (ip), vehicle: saline) 109 % of control; (dose: 100.0 mg/kg/injection, schedule: Q04DX003 (ip), vehicle: saline) 109 % of control; (dose: 150.0 mg/kg/injection, schedule: Q04DX003 (ip), vehicle: saline) 104 % of control.

As to `CNC(=O)OCCC(OC(=O)NC)C1CCC2C3CC=C4CC(OC(C)=O)CCC4(C)C3CCC12C` (stereo not given), the T/C by setting is: (dose: 100.0 mg/kg/injection, schedule: Q01DX001 (ip), vehicle: Klucel (hydroxypropylcellulose) (HPC)) 103 % of control; (dose: 200.0 mg/kg/injection, schedule: Q01DX001 (ip), vehicle: Klucel (hydroxypropylcellulose) (HPC)) 104 % of control; (dose: 400.0 mg/kg/injection, schedule: Q01DX001 (ip), vehicle: Klucel (hydroxypropylcellulose) (HPC)) 110 % of control.

On to `COc1cccc2c1C(=O)c1c(O)c3c(c(O)c1C2=O)CC(O)(C(C)=O)CC3OC1CC(N)C(O)C(C)O1` (stereo not given) (tested in a mixture with another compound), for which the T/C reads like this: (dose: 4.69 mg/kg/injection, schedule: Q04DX003 (ip), vehicle: water) 105 % of control and 110 % of control and 114 % of control; (dose: 9.38 mg/kg/injection, schedule: Q04DX003 (ip), vehicle: water) 114 % of control and 124 % of control and 112 % of control; (dose: 9.4 mg/kg/injection, schedule: Q04DX003 (ip), vehicle: water) 118 % of control and 103 % of control; (dose: 18.75 mg/kg/injection, schedule: Q04DX003 (ip), vehicle: water) 114 % of control and 112 % of control and 116 % of control; (dose: 37.5 mg/kg/injection, schedule: Q04DX003 (ip), vehicle: water) 114 % of control and 124 % of control and 118 % of control; (dose: 75.0 mg/kg/injection, schedule: Q04DX003 (ip), vehicle: water) 109 % of control [middle of 6 runs]. Further, the T/C (dose: 150.0 mg/kg/injection, schedule: Q04DX003 (ip), vehicle: water) is 91 % of control and 98 % of control.

For the molecule `CCOC(=O)COc1cc2c(cc1C(C)c1ccc(OC)cc1)OCO2` (stereo not given), the T/C was 104 % of control (dose: 50.0 mg/kg/injection, schedule: Q01DX005 (ip), vehicle: Klucel (hydroxypropylcellulose) (HPC)); 100 % of control (dose: 100.0 mg/kg/injection, schedule: Q01DX005 (ip), vehicle: Klucel (hydroxypropylcellulose) (HPC)); 94 % of control (dose: 200.0 mg/kg/injection, schedule: Q01DX005 (ip), vehicle: Klucel (hydroxypropylcellulose) (HPC)).

Regarding `O=C(Cc1nc2ccc(Cl)cc2nc1CC(=O)c1ccccc1)c1ccccc1`, the T/C is, setting by setting: (dose: 15.0 mg/kg/injection, schedule: Q01DX005 (ip), vehicle: saline with Tween-80) 102 % of control; (dose: 30.0 mg/kg/injection, schedule: Q01DX005 (ip), vehicle: saline with Tween-80) 111 % of control; (dose: 60.0 mg/kg/injection, schedule: Q01DX005 (ip), vehicle: saline with Tween-80) 100 % of control and 107 % of control.

Take `CCOc1c(C)cc(C(C)c2cc3c(cc2OC)OCO3)cc1C` (stereo not given): the T/C reads like this: under setting [1], 97 % of control; under setting [2], 99 % of control; under setting [3], 107 % of control.

`CCOC(=O)c1cn(C)c2c1C(=O)C(C(=O)OCC)CC(=O)N2` (stereo not given): the T/C is 94 % of control (dose: 50.0 mg/kg/injection, schedule: Q01DX005 (ip), vehicle: saline + Tween-80 + alcohol); 99 % of control (dose: 100.0 mg/kg/injection, schedule: Q01DX005 (ip), vehicle: saline + Tween-80 + alcohol); 101 % of control (dose: 200.0 mg/kg/injection, schedule: Q01DX005 (ip), vehicle: saline + Tween-80 + alcohol).

As to `Cn1c(=O)c2[nH]c(Cl)nc2n(CCCl)c1=O`, the T/C is, setting by setting: under setting [6], 100 % of control and 88 % of control; under setting [7], 89 % of control and 98 % of control; under setting [4], 102 % of control and 95 % of control; under setting [5], 104 % of control and 109 % of control.
